{"source": "patent US20080249042A1", "about": "“All-Trans-Retinol: All-Trans-13,14-Dihydroretinol Saturase and Methods of Its Use” (UNIVERSITY OF WASHINGTON, priority 2004, published 2008)", "key": {"RAR/RXR heterodimers": {"system": "RAR/RXR heterodimers", "experiment": "F9-RARE-lacZ DR5 RARE reporter cell assay", "conditions": "linear part of the dose-response curve", "protocol": "RARE and RXRE Activation Assay. […] The RA-responsive F9 cell line was transfected with a reporter construct of an RARE derived from the human retinoic acid receptor-β gene (RAR-β) placed upstream of the Escherichia coli lacZ gene. […] Cells were grown in L15-CO2 media containing N-3 supplements and antibiotics. […] After 24 h, cells were split into 24-well plates to ensure an equal number of transfected cells in each assay well. Cells were stimulated with appropriate concentrations of all-trans-RA, 9-cis-RA, or all-trans-DRA. After 48 h, the expression of β-galactosidase was assayed as described above."}, "LRAT": {"target": "T1, LRAT (Mus musculus, UniProt Q9JI60)", "T1 construct": "For expression Lrat coding region was amplified using the primers; expressed in transfected cells; membrane homogenate", "T1 sequence (Q9JI60 1-231)": "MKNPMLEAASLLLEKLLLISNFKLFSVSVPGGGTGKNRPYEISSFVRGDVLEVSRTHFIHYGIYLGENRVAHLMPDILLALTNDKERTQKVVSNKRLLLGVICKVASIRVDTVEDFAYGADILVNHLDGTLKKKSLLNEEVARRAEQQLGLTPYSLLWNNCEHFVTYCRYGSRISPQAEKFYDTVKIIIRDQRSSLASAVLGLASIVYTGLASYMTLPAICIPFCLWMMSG", "experiment": "Esterification assay, RPE microsomes and HEKK-LRAT cell homogenate", "format": "biochemical", "conditions": "10 min, 37° C.", "source_text": "Inducible-Expression Of LRAT Protein in HEKK Cells. Mouse Lrat cDNA was cloned as described elsewhere. For expression Lrat coding region was amplified using the primers: 5′-[…]-3′ (SEQ ID NO: 11) and […] (SEQ ID NO: 12). The PCR product was ligated into the pCR-Blunt II-TOPO vector (Invitrogen) and then subcloned into the EcoRI site of pCDNA4/TO. TetR-expressing HEKK cells were transfected with the pCDNA4/TO-Lrat construct and selected with zeocin. Stable clones were verified for expression of Lrat protein using the anti-LRAT monoclonal antibody described elsewhere (2).\nEsterification assay of all-trans-retinol and all-trans-13,14-dihydroretinol. HEKK-LRAT cells were homogenized in 250 mM sucrose, 10 mM Tris-HCl with the aid of a douncer. RPE microsomes were prepared as previously described. Stecher, et al. J Biol Chem 274:8577-8585, 1999. A substrate solution, 2 μL of 1 mM stock in DMF, was added to a 1.5 ml Eppendorf tube containing 20 μL of 10% BSA and 20 μL of UV-treated RPE microsomes or 100 μL of membrane homogenate of HEKK-LRAT cells and 10 mM BTP (pH 7.5) buffer to a total volume of 200 μL. […] Then 100 μL of the hexane extract was analyzed by normal-phase HPLC, using first 0.5% ethyl acetate in hexane for 10 min to separate retinyl esters and then 20% ethyl acetate in hexane for an additional 10 min to separate retinols. Elution was monitored at 290 nm and 325 nm."}, "mouse RetSat": {"target": "T2, mouse RetSat (Mus musculus, UniProt Q64FW2)", "T2 construct": "expressed in transfected cells", "T2 sequence (Q64FW2 26-609)": "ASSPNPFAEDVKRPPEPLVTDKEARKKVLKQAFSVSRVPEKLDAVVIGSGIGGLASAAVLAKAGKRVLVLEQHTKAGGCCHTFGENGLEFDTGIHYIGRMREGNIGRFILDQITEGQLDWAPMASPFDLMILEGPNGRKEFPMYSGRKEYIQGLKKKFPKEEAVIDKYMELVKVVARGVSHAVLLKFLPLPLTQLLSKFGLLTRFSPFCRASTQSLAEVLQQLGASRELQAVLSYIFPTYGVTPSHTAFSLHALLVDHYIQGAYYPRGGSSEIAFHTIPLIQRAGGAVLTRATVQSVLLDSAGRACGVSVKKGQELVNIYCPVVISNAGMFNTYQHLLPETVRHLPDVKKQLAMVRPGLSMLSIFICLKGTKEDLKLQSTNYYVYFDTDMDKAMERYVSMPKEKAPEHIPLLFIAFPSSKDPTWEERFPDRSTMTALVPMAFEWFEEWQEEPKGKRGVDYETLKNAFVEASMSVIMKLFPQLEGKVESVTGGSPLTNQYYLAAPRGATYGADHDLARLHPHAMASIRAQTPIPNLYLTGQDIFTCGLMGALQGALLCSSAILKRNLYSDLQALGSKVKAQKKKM", "conditions": "earlier report, Moise et al. 2004; cited from earlier work"}}, "data": [{"compound": "CC1=C(/C=C/C(C)=C/C=C/C(C)CC(=O)O)C(C)(C)CCC1", "note": "(stereo not drawn) [all-trans-DRA, all-trans-13,14-dihydroretinoic acid]", "values": [{"measurement": "Fold less effective than all-trans-RA in activating DR5-response elements", "setting": "RAR/RXR heterodimers", "result": "about 100 fold"}]}, {"compound": "CC1=C(/C=C/C(C)=C/C=C/C(C)CCO)C(C)(C)CCC1", "note": "(stereo not drawn) [all-trans-DROL, all-trans-13,14-dihydroretinol]", "values": [{"measurement": "Esterification by LRAT (substrate activity)", "setting": "LRAT", "result": "as good a substrate for LRAT as all-trans-retinol"}]}, {"compound": "CC1=C(/C=C/C(C)=C/C=C/C(C)=C/C(=O)O)C(C)(C)CCC1", "note": "[all-trans-RA, all-trans-retinoic acid, reference compound]", "values": [{"measurement": "Saturation by RetSat", "setting": "mouse RetSat", "result": "does not saturate"}]}]}
